The record followed here is article PMC9786284, “Synthesis and Antiproliferative Effect of Halogenated Coumarin Derivatives” (Molecules, 2022).

Bounds are passed on as bounds.

Type in all cases: cell-based
A short description of series [1]: MTT cell viability assay. To be noted: human, MTT, 24 h, concentration required to inhibit cell proliferation by 50%, mean ± SD. The protocol: (§1) The cytotoxic effect of coumarins 2a–k was tested on several cancer and normal cell lines: lung cancer cell line (SK-MES-1), thyroid cancer cell lines (K-1; B-CPAP ant TPC-1), lung fibroblast (MRC-5) and thyroid normal cell line (Nthy-ori-3-1) by MTT (3-[4,5-dimethylthiazol-2-yl]-2,5 diphenyltetrazolium bromide) assay.
(§2) The papillary thyroid carcinoma (PTC)-derived cell lines (TPC-1 and B-CPAP) were kindly provided by Dr. Fusco (Medical School, University Federico II of Naples, Naples, Italy). K-1 PTC-derived cell line and non-tumorigenic thyroid Nthy-ori-3-1 cell line were purchased from Health Protection Agency Culture Collections. The PTC-derived cell lines were maintained in DMEM/F12 (Gibco-BRL. Life Technologies, Milan, Italy)] supplemented with 10% fetal bovine serum (Gibco-BRL) at 37 °C in humidified 5% CO2. SK-MES-1 and MRC-5 were purchased from American Type Culture Collection (ATCC) and were maintained in Mem-E medium, supplemented with 10% fetal bovine serum, 100 units/mL penicillin G, and 100 μg/mL streptomycin (Gibco-BRL) at 37 °C in humidified 5% CO2.
(§3) The effect of test compounds on the viability of cells was detected by MTT assay. The thyroid cells (7.5 × 10^3 cells/mL), SK-MES-1, and MRC-5 (8 × 10^4 cells/mL) were seeded into a 96-well plate and allowed to adhere for 16 h to culture plates before the addition of the compounds.
(§4) Then, compounds were added at different concentrations (0.8–100 μM), and cells were further incubated for 24 h. Cells with no treatment were used as a negative control. After incubation, cells were treated with MTT solution for 3 h at 37 °C. Then, the MTT solution was removed, and 150 µL of DMSO was added to the wells. The absorbances were measured at 570 nm using a TECAN microplate reader (Infinite 200, Tecan, Salzburg, Austria). Viability data were reported as % of control (untreated cells) for each cell line.
In general terms: Formazan colour is commonly taken as a measure of viable cells.

The test system of series [2] is B-CPAP thyroid cancer cell line. As to the kind of experiment: MTT cell viability assay. To be noted: Homo sapiens, BCPAP; B-CPAP; MTT, 24 h; concentration required to inhibit cell proliferation by 50%; mean ± SD; read-out: CC50. The protocol: as §1, §2, §3, §4
For series [3], the system named is K-1 thyroid cancer cell line. As to the kind of experiment: MTT cell viability assay. The conditions noted are these: K-1; MTT, 24 h; concentration required to inhibit cell proliferation by 50%; mean ± SD; read-out: CC50. The protocol:
as §1, §2, §3, §4

In series [4] the test system is SK-MES-1 lung cancer cell line. As to the kind of experiment: MTT cell viability assay. To be noted: Homo sapiens; SK-MES-1; MTT, 24 h; concentration required to inhibit cell proliferation by 50%; mean ± SD; read-out: CC50. The protocol:
as §1, §2, §3, §4

Series [5] deals with TPC-1 thyroid cancer cell line. As to the kind of experiment: MTT cell viability assay. The conditions noted are these: Homo sapiens, TPC1; TPC-1; MTT, 24 h; concentration required to inhibit cell proliferation by 50%; mean ± SD; read-out: CC50. The protocol:
as §1, §2, §3, §4

Series [6] deals with Nthy-ori-3-1 normal thyroid cells. As to the kind of experiment: Annexin V-FITC/PI apoptosis assay by flow cytometry. The conditions noted are these: 20 μM, 24 h. The protocol:
(§5) To determine whether the two studied coumarins 2k and 2h, induce cell death through apoptosis or necrosis, we performed double staining with fluorescent Annexin V-FITC/propidium iodide (PI) apoptosis detection kit in TPC-1 and Nthy-ori-3-1 as control cells. This assay is based on the ability of Annexin to recognize phosphatidylserine (PS), a membrane phospholipid exposed on the cell surface of apoptotic cells, while PI is able to bind the DNA of necrotic cells. Thanks to this combination, […] cell populations are obtained: cells negative for Annexin V-FITC and PI indicate live cells, Annexin V-FITC-positive/PI-negative and Annexin V-FITC-positive/PI-positive indicate early and late apoptotic cells, while cells negative for Annexin V-FITC and PI-positive are necrotic.
(§6) To investigate cell death induced by coumarins treatment, a flow cytometric analysis using the cell apoptosis kit Annexin V/propidium iodide (PI) double staining uptake (Life Technologies, Monza, Italy) was employed. Control and PTC-derived cells, at the density of 5 × 10^4 cells/mL, were seeded in 6-well plates (Corning) with complete DMEM/F12. First, the cells were treated with 20 µM of coumarins for 24 h. Cells were washed once with PBS 1X and stained according to the kit’s protocol. Stained cells were then analyzed by flow cytometry, measuring the fluorescence emission at 530 and 620 nm using a 488 nm excitation laser (MoFloAstrios EQ, Beckman Coulter). Cell apoptosis was analyzed using Software Summit Version 6.3.1.1, Beckman Coulter.
A general note: In flow cytometry, cells or beads pass a laser one at a time.

The subject of series [7] is TPC-1 cells. The series is described as above. The conditions noted are these: for total apoptotic cells: 20 μM, 24 h, untreated cells 10%; for viability at 20 µM: Homo sapiens, TPC1, 24 h, untreated cells 87%, read-out: viable cells. The protocol: as §5, §6
Series [8] has as its system Nthy-ori-3-1 cells. As to the kind of experiment: Intracellular ROS production (H2-DCF-DA probe). To be noted: only with 100 μM. The protocol:
(§7) It has been reported that coumarins and their derivatives are able to regulate the reactive oxygen species (ROS). For example, esculetin induces cytotoxicity in pancreatic cancer cells decreasing ROS and protein levels of the ROS-dependent transcription factor NF-κB [49]. On the other end, coumarins induce the generation and accumulation of ROS in cancer cells causing cell cycle arrest and apoptotic cell death. […] Conversely, 2h produces an antiproliferative response in TPC-1 cells by scavenging ROS. In an attempt of a better understanding of the results, such compounds were explored from an electrochemical point of view by means of cyclic voltammetry in anhydrous acetonitrile.
(§8) PTC-derived and control cells were seeded in 96-well plates (7.5 × 10^3/mL) to detect intracellular ROS production and grown for 24 h. Cells were then washed with PBS 1X solution and incubated for 30 min with 2′,7′-dichlorofluorescein diacetate probe (H2-DCF-DA) (Merck, Milan, Italy) (10 μM), as previously described. […] After 1 h of incubation, excess H2-DCF-DA was removed and replaced with PBS, and then ROS levels were measured by using a microplate reader (Infinite 200, Tecan, Salzburg, Austria) at a controlled temperature of 37 °C. The measurement was performed using an excitation of 490 nm and an emission of 520 nm. ROS production was evaluated for 2 h and monitored, taking readings at intervals of 5 min.

Series [9] relates to TPC-1 cells. As to the kind of experiment: Intracellular ROS production (H2-DCF-DA probe). The conditions noted are these: 20 and 100 μM, 30 to 120 min. The protocol: as §7, §8
The mark [10] stands for this setting: Nthy-ori-3-1 normal thyroid cells, Nthy-ori-3-1.

With `N#Cc1cc2cc(Br)cc(Br)c2oc1=O` [2h, 6,8-dibromo-2-oxo-2H-chromene-3-carbonitrile], the CC50 (usually the concentration at which the toxic effect on the cells reaches its halfway point) at 24 h in series [1] (MRC-5 lung fibroblasts, MRC-5) was more than 100 µM; in series [1] (setting [10]) it was more than 100 µM. For the same molecule, the CC50 in [2] was more than 100 µM; in series [3] it was 60 ± 3 µM; in [4] it was more than 100 µM; in series [5], 90 ± 3.5 µM. Besides, the induction of apoptosis result in series [6] is on record as “No significant induction of apoptosis”. Besides, in series [7], the total apoptotic cells amounted to 18%. Also, the viability at 20 µM in series [7] was 77.7%. The “effect on ROS” value in [8] is on record as “antioxidant”. In series [9], the ROS generation entry was “decreased ROS generation”.

`N#Cc1cc2cc(I)cc(I)c2oc1=O` [2k, 6,8-diiodo-2-oxo-2H-chromene-3-carbonitrile]: the CC50 at 24 h was more than 100 µM in series [1] (MRC-5 lung fibroblasts, MRC-5) and more than 100 µM in [1] (setting [10]). The cytotoxic concentration (CC50) in series [2] is 46 ± 0.2 µM; in series [3], 57 ± 5 µM; in series [4] it was more than 100 µM; in series [5], 44 ± 5.5 µM. Further, the induction of apoptosis result in series [6] is listed as “No significant induction of apoptosis”. In addition, the total apoptotic cells in series [7] is given as 34%. The viability at 20 µM in series [7] came out at 62%. Further, in series [8], the “effect on ROS” value is “pro-oxidant”. Further, the ROS generation result in series [9] is on record as “significant increase in ROS generation”.
